From patent US20260258064A1 (SIRONAX LTD., priority 2023, published 2026)
pIC50: −log10 of the molar value.

Target: T1, SARM1 (50-724) (Homo sapiens, UniProt Q6SZW1)
T1 construct: Purified SARM1 (50-724) with a final concentration of 2 nM was pre-incubated with a test compound
T1 sequence (Q6SZW1 50-724): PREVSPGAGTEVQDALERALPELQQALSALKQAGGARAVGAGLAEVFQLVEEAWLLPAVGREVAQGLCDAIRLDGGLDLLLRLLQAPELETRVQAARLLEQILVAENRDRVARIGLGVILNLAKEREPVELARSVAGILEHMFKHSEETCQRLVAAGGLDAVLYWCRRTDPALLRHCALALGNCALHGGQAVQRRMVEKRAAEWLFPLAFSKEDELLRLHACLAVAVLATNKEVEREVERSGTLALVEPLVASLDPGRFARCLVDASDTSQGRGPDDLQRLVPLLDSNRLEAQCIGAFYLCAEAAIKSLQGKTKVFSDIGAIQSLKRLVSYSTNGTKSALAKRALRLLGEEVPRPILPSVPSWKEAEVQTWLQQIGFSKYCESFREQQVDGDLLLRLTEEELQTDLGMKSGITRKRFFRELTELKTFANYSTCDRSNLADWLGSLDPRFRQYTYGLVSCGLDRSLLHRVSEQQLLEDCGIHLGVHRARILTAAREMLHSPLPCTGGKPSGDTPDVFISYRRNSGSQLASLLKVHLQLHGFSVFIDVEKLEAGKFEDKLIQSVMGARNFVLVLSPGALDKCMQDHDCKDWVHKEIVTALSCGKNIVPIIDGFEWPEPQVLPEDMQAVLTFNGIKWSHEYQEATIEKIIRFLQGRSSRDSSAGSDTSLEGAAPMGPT
Experiment: SARM1 (50-724) enzymatic assay (LC-MS/MS)
Type: biochemical
Details: Purified SARM1 (50-724) 2 nM, NMN as activator, NAD+ as substrate, 1 h at room temperature, read-out: IC50 (SARM1 inhibitory activity)
Outline: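 Reaction buffer was Dulbecco's PBS. Compound and 2 nM human SARM1 (50-724) were pre-incubated 15 min at room temperature, then […] NAD^+ and 200 µM NMN activator were added for 1 h at room temperature. Acetonitrile (70%) stop, LC-MS/MS read-out, IC50 values.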

Row | Structure (SMILES) | pIC50
1 | NC(=O)c1cc(-c2nc3cc(C(F)(F)F)ccc3[nH]2)n(-c2cccc(F)c2Cl)n1 [Compound 397, 1-(2-chloro-3-fluorophenyl)-5-(5-(trifluoromethyl)-1H-benzo[d]imidazol-2-yl)-1H-pyrazole-3-carboxamide] | ≥ 7.00
2 | FC(F)(F)c1ncc2[nH]c(-c3nncn3-c3cnccc3C(F)(F)F)cc2n1 [Compound 378, 2-(trifluoromethyl)-6-(4-(4-(trifluoromethyl)pyridin-3-yl)-4H-1,2,4-triazol-3-yl)-5H-pyrrolo[3,2-d]pyrimidine] | < 6.00
3 | O=C1OCC(c2nc3cc(C(F)(F)F)ccc3[nH]2)=C1c1cccc(Cl)c1Cl [Compound 25, 3-(2,3-Dichlorophenyl)-4-(5-(trifluoromethyl)-1H-benzo[d]imidazol-2-yl)furan-2(5H)-one] | < 6.00
4 | FC(F)(F)c1ccc2[nH]c(C3COCCN3c3cccc(Cl)c3Cl)nc2c1 (stereo not drawn) [Compound 363, 4-(2,3-dichlorophenyl)-3-[5-(trifluoromethyl)-1H-benzimidazol-2-yl]morpholine] | 6.00 to 6.30
5 | Clc1cccc(-n2cnnc2-c2nc3cc(-c4cncs4)ccc3[nH]2)c1Cl [Example 78, 5-(2-(4-(2,3-dichlorophenyl)-4H-1,2,4-triazol-3-yl)-1H-benzo[d]imidazol-5-yl)thiazole] | 6.30 to 7.00
6 | Oc1ccc(C(F)(F)F)c(-n2cnnc2-c2nc3cc(C(F)(F)F)ccc3[nH]2)c1 [Compound 240, 4-(trifluoromethyl)-3-(3-(5-(trifluoromethyl)-1H-benzo[d]imidazol-2-yl)-4H-1,2,4-triazol-4-yl)phenol] | ≥ 7.00
7 | Clc1cccc(-n2cnnc2-c2nc3cc(C4CCOC4)ccc3[nH]2)c1Cl (stereo not drawn) [Example 128, 2-(4-(2,3-dichlorophenyl)-4H-1,2,4-triazol-3-yl)-5-(tetrahydrofuran-3-yl)-1H-benzo[d]imidazole] | ≥ 7.00
8 | CS(=O)(=O)Cc1c(-c2nncn2-c2cnccc2C(F)(F)F)[nH]c2ccc(C(F)(F)F)cc12 [Compound 385, 3-(methylsulfonylmethyl)-5-(trifluoromethyl)-2-[4-[4-(trifluoromethyl)-3-pyridyl]-1,2,4-triazol-3-yl]-1H-indole] | ≥ 7.00
9 | CC(C)(CO)c1ccc2[nH]c(-c3nncn3-c3cccc(Cl)c3Cl)nc2c1 [Example 103] | ≥ 7.00
10 | Cc1ccc2[nH]c(-c3cc(CO)cn3C3CCCC3)nc2c1 [Compound 16, (1-Cyclopentyl-5-(5-methyl-1H-benzo[d]imidazol-2-yl)-1H-pyrrol-3-yl)methanol] | 6.00 to 6.30

More lines, now with the values ahead:

Row | pIC50 | Structure (SMILES)
11 | ≥ 7.00 | CC1(c2ccc3[nH]c(-c4nncn4-c4ccncc4OC(F)(F)F)nc3c2)CC1 [Compound 224, 5-(1-methylcyclopropyl)-2-(4-(3-(trifluoromethoxy)pyridin-4-yl)-4H-1,2,4-triazol-3-yl)-1H-benzo[d]imidazole]
12 | ≥ 7.00 | Fc1cc(C2CC23CC3)cc2nc(-c3nncn3-c3cnccc3C(F)(F)F)[nH]c12 (stereo not drawn) [Compound 338, 7-fluoro-5-spiro[2.2]pentan-2-yl-2-[4-[4-(trifluoromethyl)-3-pyridyl]-1,2,4-triazol-3-yl]-1H-benzimidazole]
13 | ≥ 7.00 | FC(F)(F)Oc1cnccc1-n1cnnc1-c1nc2cc(C34CC(C3)C4)ccc2[nH]1 [Compound 223, 5-(bicyclo[1.1.1]pentan-1-yl)-2-(4-(3-(trifluoromethoxy)pyridin-4-yl)-4H-1,2,4-triazol-3-yl)-1H-benzo[d]imidazole]
14 | ≥ 7.00 | CC(c1cc(F)c2[nH]c(-c3nncn3-c3cnccc3C(F)(F)F)nc2c1)n1cccn1 (stereo not drawn) [Compound 454, 5-(1-(1H-pyrazol-1-yl)ethyl)-7-fluoro-2-(4-(4-(trifluoromethyl)pyridin-3-yl)-4H-1,2,4-triazol-3-yl)-1H-benzo[d]imidazole]
15 | < 6.00 | CC(CN(C)C)c1ccc2[nH]c(-c3nncn3-c3cnccc3C(F)(F)F)nc2c1 (stereo not drawn) [Compound 365]
